Measured values as given in publication PMC12040169 (PLOS Biology, 2025).

Experiment: in vitro
Settings: human, hela cells, % viability

| SMILES | viability at 28.5 h, 10 µM [%] |
| --- | --- |
| O=C(O)CCCn1cc(NC(=O)c2cc(F)c(F)cc2Cl)cn1 [CBK269967] | 87.8 |
| O=C(O)c1cccc(CSCC(=O)N2CCC(Cc3ccccc3)CC2)c1 [CBK296675] | 102 |
| CC(NC(=O)CCc1cscn1)c1nc(-c2ccncc2)cs1 (stereo not drawn) [CBK305260] | 77.6 |
| CC(C)N1CC(C(=O)N(C)C)C2(CCc3ccccc3C2O)C1 (stereo not drawn) [CBK286305] | 89.1 |
| O=C(O)C1CC(O)CN1S(=O)(=O)c1ccc([N+](=O)[O-])cc1 (stereo not drawn) [CBK266158] | 100 |
| CC(=O)c1ccc(C(=O)Nc2nc3c(s2)COc2ccccc2-3)cc1 [CBK287363] | 81.9 |
| Cc1cc2c(cc1C)C(O)CC1(CCN(CC(=O)NC3CCCCC3)CC1)O2 (stereo not drawn) [CBK286399] | 94 |
| Cc1nc(C)c(-c2csc(CC(C)n3cc(Cl)cn3)n2)o1 (stereo not drawn) [CBK304710] | 106 |
| CC(C)(c1noc(C2CCOCC2)n1)S(=O)(=O)c1ccc(Br)cc1 [CBK305543] | 93.5 |
| CC(C)CSc1nccnc1N1CCCC1 [CBK103683] | 97.7 |
| COCC(=O)N1CCC(c2cc3nc(C(F)(F)F)ccc3[nH]2)CC1 [CBK282185] | 110 |
| CN1[C@@H](CCC(=O)NCc2ccc(F)cc2)CNC(=O)[C@@H]2[C@H]1CCN2C1CCOCC1 [CBK289023] | 106 |
| S=C(NCCc1ccccc1)Nc1ccc2c(c1)OCCO2 [CBK267048] | 110 |
| COc1cc(CNC(C)c2ccccc2)ccc1OCC(N)=O (stereo not drawn) [CBK269982C] | 92.8 |
| CN1CCN(CCC(=O)N/N=C/c2ccccc2O)CC1 [CBK261497] | 93.1 |
| COC(=O)CC(NC(=O)c1cccc(NC(C)=O)c1)c1cccs1 (stereo not drawn) [CBK304537] | 78 |
| c1csc(CCN2CCC3(C2)NCCc2c3[nH]c3ccccc23)c1 (stereo not drawn) [CBK040196] | 111 |
| CN1CCc2c(sc3nc(SCC(=O)c4ccccc4)n(-c4ccccc4)c(=O)c23)C1 [CBK262586] | 85.8 |

| SMILES | viability at 28.5 h, 10 µM [%] |
| --- | --- |
| CC(Cn1cncn1)NC(=O)c1cccc(S(=O)(=O)NC2CCCC2)c1 (stereo not drawn) [CBK304209] | 89 |
| CCOC(=O)CCC(=O)n1c2ccccc2c2ccccc21 [CBK001170] | 67.2 |
| O=C1CC(C(=O)O)CN(c2cccs2)C1 (stereo not drawn) [CBK021796] | 92.8 |
| CCc1cc(CNS(=O)(=O)Cc2cccc(F)c2)on1 [CBK283061] | 92.1 |
| Cc1ccc(C(=O)Nc2ccc3[nH]ccc3c2)cc1Cl [CBK159677] | 85.5 |
| Cn1c2c(c3ccccc31)CCOC21CCN(CC2CCCCO2)CC1 (stereo not drawn) [CBK040649] | 87.9 |
| O=C(CSc1ccc(Cl)cc1)N1CCN(c2ccc([N+](=O)[O-])c(N3CCOCC3)c2)CC1 [CBK269670] | 85.3 |
| Cc1cc(C(F)(F)F)nc(CCNC(=O)N(Cc2ccsc2)C2CC2)n1 [CBK307468] | 107 |
| Cc1nn(CC(=O)NCc2ccc(C(=O)O)cc2)c(C)c1[N+](=O)[O-] [CBK268967] | 118 |
| O=C(Cc1cccnc1)N1Cc2ccccc2C1 [CBK200320] | 90.5 |
| COCC(C)NC(=O)Cn1cccc2cc(C(F)F)nc1-2 (stereo not drawn) [CBK285011] | 104 |
| CCc1nc2ccc(C(=O)N3CCNC(=O)C3)cn2c1N(CCC(C)C)CCN(C)C [CBK146255] | 92.4 |
| O=C(NCCN1CCN(C(=O)Nc2ccccc2)CC1)C1CCCC1 [CBK305915] | 95.8 |
| COc1ccc(C(C)=O)cc1Cc1c(O)nc(SC)nc1O [CBK262699] | 93.9 |
| Fc1ccc2c(-c3ccccc3)noc2c1 [CBK025975] | 86.8 |
| CCCn1c(SCC(=O)N2CCN(C(=O)c3cccs3)CC2)n[nH]c1=O [CBK297109] | 97.6 |
| c1csc(-c2nnc(C3CCN(Cc4ccsc4)CC3)o2)c1 [CBK285309] | 102 |
| O=C1C2C3C=CC(C3)C2C(=O)N1CCNCCO (stereo not drawn) [CBK264414] | 93 |
